Results taken from publication PMC9228468, “Relevance of Therapeutic Drug Monitoring of Tyrosine Kinase Inhibitors in Routine Clinical Practice: A Pilot Study” (Pharmaceutics, 2022).

Columns and labels:
[1] = Therapeutic drug monitoring: plasma levels by HPLC-UV, dose-normalized plasma concentrations; assay type: in vivo, human
Experimental: (§1) Monitoring was carried out in all cases after at least fifteen days from the start of treatment, when the plasma levels of the drug were considered at steady state. Blood samples were extracted just before ingestion of the tablet/s and at different times after ingestion. The drug was administered in the fasted state and patients were told they could eat food after the second blood sample was drawn. Sampling times, which are defined for each drug in Table 1, were selected based on the optimal sampling theory and pharmacokinetic models previously published in the scientific literature. […] The total blood volume extracted was between 4 and 5 mL for each sample. All samples were centrifuged after extraction at 3500 r.p.m. for 10 min at room temperature and the plasma obtained was frozen at −80 °C until bioanalysis.
Bioanalysis was carried out using high-performance liquid chromatography (HPLC) coupled with ultraviolet (UV) detection.
As the stationary phase, an Ultrabase® C18 chromatographic column, 4.6 mm in diameter by 150 mm in length, made of stainless steel and filled with a C18 reversed-phase siliceous substrate with a particle size of 5 µm, was used. A mixture of 40% of 0.02 M ammonium acetate, pH = 7, and 60% acetonitrile: methanol at a ratio of 70:30 (v/v) was used as the mobile phase. The linearity of the technique included a concentration range of 0.05–7.5 µg/mL. The limit of quantification was 0.5 µg/mL. Solid–liquid extraction was used and the analysis time was 9 min.
The stationary phase used was an Ultrabase® C18 chromatographic column, 4.6 mm in diameter by 150 mm in length, made of stainless steel and filled with a C18 reversed-phase siliceous substrate with a particle size of 5 µm. The mobile phase used was a 40% mixture of 0.02 M ammonium acetate, pH = 7, and 60% acetonitrile: methanol at a ratio of 70:30 (v/v). The linearity of the technique included a concentration range of 0.05–5 µg/mL. The limit of quantification was 0.5 µg/mL. Solid–liquid extraction was used and the analysis time was 10 min.
The stationary phase used was a Kromasil® C18 chromatographic column, 4.6 mm in diameter by 150 mm in length, made of stainless steel and filled with a C18 reversed-phase siliceous substrate with a particle size of 5 µm. The mobile phase used was a mixture of acetonitrile and 0.02 M ammonium acetate, pH = 3.5, at a ratio of 53:47 (v/v). The linearity of the technique included a concentration range of 0.02–10 µg/mL. The limit of quantification was 0.2 µg/mL. Liquid–liquid extraction was used and the analysis time was 12 min [51].
The stationary phase used was a Kromasil® C18 chromatographic column, 4.6 mm in diameter by 150 mm in length, made of stainless steel and filled with a C18 reversed-phase siliceous substrate with a particle size of 5 µm. The mobile phase used was a mixture of acetonitrile and 0.02 M ammonium acetate, pH = 3.5, at a ratio of 53:47 (v/v). The linearity of the technique included a concentration range of 0.1–20 µg/mL. The limit of quantification was 0.1 µg/mL. Liquid–liquid extraction was used and the analysis time was 12 min [52].
The program was compiled with the DIGITAL Visual Fortran version 6.6C program. The graphics were made with the S-Plus 6.1 Professional Edition program for Windows (Insightful, Seattle, WA, USA). A one-compartment pharmacokinetic model with first-order absorption and elimination kinetics was selected to describe erlotinib plasma concentrations, as performed previously by other authors. The fixed-effect parameters estimated by the model were V (volume of distribution, L), CL (plasma clearance, L/h) and Ka (absorption constant). The model included plasma ALT concentration and age as covariates in CL, and weight in V.
The model was parameterized in terms of D1 (zero-order absorption duration), V and CL, and included the plasma concentration of α 1-acid glycoprotein as a covariate in CL. […]

[2] = cited from earlier work
[3] = TDM-guided dose adjustment recommendations per monitored cycle; assay type: in vivo, human
Experimental: Patients included in this study received drugs at doses previously established by their doctors, according to data sheet indications and clinical judgment. In all cases, drug dose was prescribed before the patient enrolled onto this study and was not affected by this study prior to enrollment.
as §1

[4] = Survival analysis (Kaplan-Meier, PFS and OS); assay type: in vivo, human; details: real-world cancer patients with TDM
Experimental: (§2) Patients’ medical records were reviewed with the aim of studying all possible factors related to the patient and the medication that may influence the evolution of the plasma concentrations of TKIs. Sociodemographic and anthropometric, pharmacological treatment, clinical, toxicity and therapeutic drug monitoring data were collected. Treatment response was determined according to the […]. Adverse events were recorded by grade according to the Common Terminology Criteria for Adverse Events version 3.0 (CTCAE v 3.0).
To assess the relationship between treatments protocols and disease progression or mortality, a Kaplan–Meier survival curve was plotted.

[5] = Groups of patients according to exposure and toxicity; assay type: in vivo, human
[6] = Incidence of toxicity (CTCAE grades), first vs last monitored cycle; assay type: in vivo, human
Experimental: as §2
To compare the variation in categorical variables (rash, diarrhea, fatigue, abdominal pain, hypertension, and mucositis) between the first and the last monitored cycle, the non-parametric chi-square test was performed.

[7] = cited from earlier work; remark: listed apart in the source
[8] = phase II study of 57 NSCLC patients

## C#Cc1cccc(Nc2ncnc3cc(OCCOC)c(OCCOC)cc23)c1 [Erlotinib, erlotinib]
[1]; first monitored cycle
  mean interpatient variability in dose-normalized plasma concentrations (CV): 46.2%
[1]; last monitored cycle, after TDM and dose adjustments
  mean interpatient variability in dose-normalized plasma concentrations (CV): 44%
[2]; 26 NSCLC patients
  OS: 16.9 months
  PFS: 6.3 months
[2]; [8]
  OS of patients with grade 1 rash: 8.5 months
  OS of patients with grade 2 rash: 19.6 months
  OS of patients without rash: 1.5 months
[3]; concentrations above therapeutic range
  monitored cycles with recommendation to decrease the dose: 3.6%
[3]; concentrations below target therapeutic range
  monitored cycles with recommendation to increase the prescribed dose: 38.2%
[3]; concentrations within therapeutic range
  monitored cycles with recommendation to maintain the current dose: 54.5%
[3]; in vivo
  monitored cycles with recommendation to suspend/suppress the drug: 3.6%
[4]
  Overall Survival, Median: 32 Months
  Progression-Free Survival, Median: 8 Months
[5]; Drug concentrations above target level: No, Toxicities: No
  % patients, Group 1: 18.2%
[5]; Drug concentrations above target level: No, Toxicities: Yes
  % patients, Group 3: 22.7%
[5]; Drug concentrations above target level: Yes, Toxicities: No
  % patients, Group 2: 13.6%
[5]; Drug concentrations above target level: Yes, Toxicities: Yes
  % patients, Group 4: 45.5%
[6]; at start of treatment
  Patients with toxicity: 9 (45.4) n. (%)
[6]; first monitored cycle
  patients with grade 2 skin rash: 13.6%
  patients with grade 3 mucositis: 4.5%
  patients with grade 3 thrombocytopenia: 4.5%
[6]; in vivo
  Toxicity: Anemia G1: 4 (18.1) n. (%)
  Toxicity: Anemia G2: 2 (9.1) n. (%)
  Toxicity: Diarrhea G2: 3 (13.6) n. (%)
  Toxicity: Fatigue G2: 2 (9.1) n. (%)
  Toxicity: Mucositis G3: 1 (4.5) n. (%)
  Toxicity: Skin rash G1: 5 (22.7) n. (%)
  Toxicity: Skin rash G2: 3 (13.6) n. (%)
  Toxicity: Skin rash G3: 3 (13.6) n. (%)
  analytical parameters related to toxicity and defined toxicities, first vs last monitored cycle: no significant differences
  patients who developed toxicity at the start of treatment: 45.4%
[6]; last monitored cycle
  patients with grade 2 skin rash: 14.3%
  patients with grade 3 mucositis: 0%
  patients with grade 3 rash: 7.1%
  patients with grade 3 thrombocytopenia: 0%
[6]; renal insufficiency grade 1 (IR G1 for sorafenib)
  Toxicity: RI G1: 9 (45.4) n. (%)
[6]; renal insufficiency grade 2
  Toxicity: RI G2: 4 (18.1) n. (%)
[6]; trombopenia grade 3
  Toxicity: Thromb. G3: 1 (4.5) n. (%)
[7]
  fraction of a single dose eliminated in the urine: 9%
[7]; target 500 mg/L, lung cancer patients
  patients with plasma concentrations below the target: 11.1%
